{
  "source": "patent US8999959B2",
  "about": "“Drug for treating liver lesions caused by the action of chemical or biological agents” (priority 2010, dated 2015)",
  "key": {"[1]": {"tested_on": "toxic hepatitis caused by carbon tetrachloride (CCl4)", "assay": "Treatment of acute toxic hepatitis (CCl4) in rats by parenteral (intravenous) administration", "assay_type": "in vivo", "design": "Total bilirubin, serum: unit not given here", "procedure": "Treatment of toxic hepatitis by means of parenteral administration of the inventive substance. Acute toxic hepatitis was induced in rats by means of intragastric administration of 50% solution of carbon tetrachloride (CCl4) in olive oil in the amount of 1 ml/kg during 6 days. After 10 days the presence of toxic hepatitis was confirmed by morphological image of liver in all experimental animals. Starting from that day, for 10 days the preparations were administered to the experimental animals by way of treatment, once every 24 hours.\nEssentiale was used as the preparation for comparison, which was administered in ampoules in the amount of 1 ml/100 g intravenously, slowly, into the caudal vein. The inventive substance was also administered intravenously in varying amounts in order to refine the treatment procedure. The effectiveness of treatment was evaluated on the basis of clinical performance, body weight dynamics, relative liver mass, the contents of bilirubin, transaminases, phosphatases, ceruloplasmin, total protein, blood serum lipids, the contents of glycogen, glutathione, SH-groups, stress tests (hexenal test, bromsulphalein test) and the histological pattern of liver.\nWeight dynamics of the rats were determined by means of scales VLR-500. Liver of the animals was weighted using electronic scales 1602 MP by “Sartorius”. The contents of reduced glutathione in liver and the content of sulfhydryl groups in blood serum was evaluated by amperometric titration according to Rubinnaya N. S. (Stalnaya I.D., Garishvili T. G Modern methods in biochemistry. Moscow, Meditsina, 1977, pp. 66-68), the contents of glycogen—by the Samodi method (Stalnaya I.D., Garishvili T. G Modern methods in biochemistry. Moscow, Meditsina, 1977, pp. 66-68). The antitoxic function of liver was evaluated by the duration of hexenal sleep (70 mg per 1 kg of body weight), and the excretory function of liver was assessed by means of bromsulphalein test.\nBlood for biochemical tests was obtained by means of paracentesis of the caudal vein of rats.\nThe activity of ALT, AST, ALP, ACP, LDH, thymol test, the contents of total protein and lipids, cholesterol, blood serum bilirubin were assessed by means of sets Bio-Lat-Test manufactured by a Czech company “Lachema”, the contents of ceruloplasmin were assessed according to Babenko (Laboratory research methods in clinical practice. Reference book, under the editorship of V. V. Menshikov. Moscow, Russia—Meditsina, 1987, p. 365). The animals were killed by decapitation, subjected to anatomicopathological autopsy and histological study. The experimental and reference rats were killed by means of decapitation. The material was fixed in 10-15% formaldehyde and embedded in paraffin. Paraffin slices were stained by means of hematoxylin and eosin. Fixed frozen slices were stained for fat by means of Sudan III.\nStatistical processing of the experiments' results was done according to Student's T-distribution and F-distribution.\nThe effectiveness of preparations was assessed according to several groups of indices: morphometric, biochemical and functional. First of all the clinical performance of intoxication was observed. The clinical performance in the group of rats that received CCl4 with no treatment was characterized by hypodynamia, dormancy, disheveled hair and untidy appearance of the animals. They gained weight less well than the other rats. In this group, by day 15 of the study 80% of animals were dead."}, "[2]": {"tested_on": "liver cirrhosis induced by carbon tetrachloride (CCl4)", "assay": "Treatment of liver cirrhosis (CCl4) in rats by oral administration", "assay_type": "in vivo", "design": "Relative liver mass: unit not given here", "procedure": "Treatment of liver cirrhosis by oral administration of the inventive substance. Liver cirrhosis was induced in rats by means of intragastric administration of 50% solution of carbon tetrachloride (CCl4) in olive oil in the amount of 1 ml/kg during 10 days. After 20 days the presence of liver cirrhosis was confirmed by morphological image of liver in all laboratory animals. Starting from that day, for 10 days the inventive agent was administered to the laboratory animals by way of treatment, once every 24 hours, in varying amounts in order to refine the optimal treatment procedure.\nThe effectiveness of the inventive preparation was evaluated in comparison with Essentiale by several groups of indices: morphometric, biochemical and functional. First of all the clinical performance of intoxication was observed. The clinical performance in the group of rats that received CCl4 with no treatment was characterized by hypodynamia, dormancy, disheveled hair and untidy appearance of the animals. They gained weight less well than the other rats. In this group by day 15 of the study 80% of the animals were dead, in the group that received Essentiale—60%, in the group that received the inventive agent—40%.\nQuantitative assessment of the preparation's effectiveness in treatment of toxic hepatitis was performed using a point rating system, taking into account the marker indices: the largest score for each index was assigned to the group with the more pronounced positive effect of the preparation."}, "[3]": {"conditions": "CCl4 intoxication, after 10 days i.v. treatment, inventive substance 25 mg/kg, Essentiale 1 ml/100 g, M ± m"}, "[4]": {"conditions": "point rating system, larger score = more pronounced positive effect, inventive substance 180 mg/kg, Essentiale 100 mg/kg"}, "[5]": {"conditions": "rats, CCl4 intoxication (cirrhosis), after 10 days oral treatment, inventive substance 90 mg/kg, Essentiale 100 mg/kg, M ± m"}, "[6]": {"conditions": "rats, CCl4 liver cirrhosis, oral treatment"}},
  "data": [
    {"smiles": "O=Nc1c(O)n(-c2ccc(Br)cc2)c(=O)[nH]c1=O", "note": "[The inventive substance, 1-(4-bromophenyl)-6-hydroxy-5-nitroso-1,2,3,4-tetrahydropyrimidine-2.4-dione]", "values": [
      {"measurement": "Body weight", "setting": "[1]; CCl4 intoxication, after 10 days i.v. treatment once every 24 h, inventive substance 25 mg/kg, Essentiale 1 ml/100 g, M ± m", "value": "174 ± 8", "unit": "g"},
      {"measurement": "Hexenal sleep", "setting": "[1]; CCl4 intoxication, after 10 days i.v. treatment, hexenal 70 mg/kg, inventive substance 25 mg/kg, Essentiale 1 ml/100 g, M ± m", "value": "31.0 ± 2.0", "unit": "min"},
      {"measurement": "ACP", "setting": "[1]; [3]", "value": "0.75 ± 0.10", "unit": "μkat/l"},
      {"measurement": "Alanine aminotransferase, serum", "setting": "[1]; [3]", "value": "0.85 ± 0.08", "unit": "µmol/s/L"},
      {"measurement": "Alkaline phosphatase, serum", "setting": "[1]; [3]", "value": "811 ± 26.3", "unit": "nmol/s/L"},
      {"measurement": "Aspartate aminotransferase, serum", "setting": "[1]; [3]", "value": "0.32 ± 0.04", "unit": "µmol/s/L"},
      {"measurement": "Ceruloplasmin, serum", "setting": "[1]; [3]", "value": "477 ± 44", "unit": "mg/L"},
      {"measurement": "Cholesterol, serum", "setting": "[1]; [3]", "value": "1.70 ± 0.19", "unit": "mmol/L"},
      {"measurement": "Concentration of bromsulphalein at 10th minute after administrating the serum, extinction,", "setting": "[1]; [3]", "value": "13.5 ± 1.6", "unit": "extinction"},
      {"measurement": "Glycogen, liver", "setting": "[1]; [3]", "value": "2691 ± 191", "unit": "mg %"},
      {"measurement": "LDH", "setting": "[1]; [3]", "value": "5.49 ± 0.45", "unit": "mmol/h/L"},
      {"measurement": "Reduced glutathione, liver", "setting": "[1]; [3]", "value": "164 ± 10", "unit": "mg %"},
      {"measurement": "Relative liver mass", "setting": "[1]; [3]", "value": "27.87 ± 1.03", "unit": "g/kg"},
      {"measurement": "SH-groups, serum", "setting": "[1]; [3]", "value": "1554 ± 72", "unit": "mg %"},
      {"measurement": "Thymol test", "setting": "[1]; [3]", "value": "1.18 ± 0.17", "unit": "turbidity units"},
      {"measurement": "Total bilirubin, serum", "setting": "[1]; [3]", "value": "3.8 ± 0.5"},
      {"measurement": "Total lipids, serum", "setting": "[1]; [3]", "value": "3.4 ± 0.09", "unit": "g/L"},
      {"measurement": "Total protein, serum", "setting": "[1]; [3]", "value": "69 ± 6", "unit": "g/L"},
      {"measurement": "microvesicular focal steatosis (liver histology, in words)", "setting": "[1]; CCl4 toxic hepatitis, after i.v. treatment", "value": "absence of microvesicular focal steatosis"},
      {"measurement": "percentage of deaths in the groups by the end of the treatment", "setting": "[1]; CCl4 toxic hepatitis, day 20, 40% dead by start of treatment (day 10), inventive substance 25 mg/kg i.v., Essentiale 1 ml/100 g i.v.", "value": 40, "unit": "%"},
      {"measurement": "manifestations of intoxication (clinical performance, in words)", "setting": "[1]; CCl4 toxic hepatitis, i.v. treatment", "value": "reduced or almost completely arrested the manifestations of intoxication"},
      {"measurement": "Quantitative assessment of effectiveness, ALP score", "setting": "[2]; [4]", "value": 11, "unit": "points"},
      {"measurement": "Quantitative assessment of effectiveness, ALT score", "setting": "[2]; [4]", "value": 7, "unit": "points"},
      {"measurement": "Quantitative assessment of effectiveness, AST score", "setting": "[2]; [4]", "value": 7, "unit": "points"},
      {"measurement": "Quantitative assessment of effectiveness, Hexenal sleep score", "setting": "[2]; [4]", "value": 10, "unit": "points"},
      {"measurement": "Quantitative assessment of effectiveness, Weight coefficient score", "setting": "[2]; [4]", "value": 10, "unit": "points"},
      {"measurement": "Body weight", "setting": "[2]; rats, CCl4 intoxication (cirrhosis), after 10 days oral treatment once every 24 h, inventive substance 90 mg/kg, Essentiale 100 mg/kg, M ± m", "value": "174 ± 7", "unit": "g"},
      {"measurement": "Alanine aminotransferase, serum", "setting": "[2]; [5]", "value": "0.85 ± 0.08", "unit": "µmol/s/L"},
      {"measurement": "Alkaline phosphatase, serum", "setting": "[2]; [5]", "value": "811 ± 26.3", "unit": "nmol/s/L"},
      {"measurement": "Aspartate aminotransferase, serum", "setting": "[2]; [5]", "value": "0.32 ± 0.04", "unit": "µmol/s/L"},
      {"measurement": "Hexenal sleep", "setting": "[2]; [5]", "value": "31.0 ± 2.0", "unit": "min"},
      {"measurement": "Relative liver mass", "setting": "[2]; [5]", "value": "27.87 ± 1.03"},
      {"measurement": "degenerative changes of the liver (histology, in words)", "setting": "[2]; rats, CCl4 liver cirrhosis, after oral treatment, majority of rats", "value": "no degenerative changes of the liver"},
      {"measurement": "condition and function of liver (in words)", "setting": "[2]; [6]", "value": "virtually completely and reliably normalized the condition and function of liver"},
      {"measurement": "manifestations of intoxication (clinical performance, in words)", "setting": "[2]; [6]", "value": "reduced or almost completely arrested the manifestations of intoxication"},
      {"measurement": "animals dead by day 15 of the study", "setting": "[2]; rats, CCl4 liver cirrhosis, oral treatment, untreated CCl4 group 80%", "value": 40, "unit": "%"},
      {"measurement": "Quantitative assessment of effectiveness, Total points", "setting": "[2]; sum of marker index scores, inventive substance 180 mg/kg, Essentiale 100 mg/kg", "value": 45, "unit": "points"}
    ]}
  ]
}
